Results on six compounds are retold here after patent US8841121B2, “Vector, vector combinations, methods and kit thereof” (Jawaharlal Nehru Centre for Advanced Scientific Research, priority 2010, dated 2014).

One data set relates to HEK 293 cells. The data set can be described thus: Cytotoxicity / cell death by light microscopy in transfected HEK 293 cells. It is filed as cell-based. Particulars: for Cytotoxicity / cell death (light microscopy): HEK 293 cells, increasing concentrations of the inhibitor. The procedure:
Tat up-regulates GFP expression (middle panels). […] Thus, a cytotoxic molecule down-regulates GFP without being a Tat inhibitor.
293 cells are transiently transfected with pPRIME-LTR-GFP: anti-RFP miRNA (p604.344 and p604.620), CMV-RFP and EF-1α-Tat (YU-2) vectors. Cells are treated with different concentrations of the SMI 24 h after transfection. GFP and RFP expression is recorded 24 h after vector transfection. LM, Light microscopy.
(§1) DRB (5, 6-dichloro-1-beta-D-ribofuranosylbenzimidazole) a small molecule inhibitor, blocks an essential cellular enzyme CDK9, a kinase, critical for general transcription of many genes and therefore is cytotoxic. […] The Tat inhibition potential as well as cytotoxicity of DRB at 3 different concentrations is tested in HEK 293 cells using plasmid combinations as defined in Table-2. Images of the cells are captured using light microscopy, GFP or RFP filters at 36 h. […] Thus, the GFP-based assay identifies false hits, but not the instant RFP-based assay.

Data set [1] addresses T1, Tat (Human immunodeficiency virus type 1 group M subtype B, UniProt P35965). In words: Tat-inducible GFP / anti-RFP shRNA reporter assay, transient transfection in HEK293 cells. It is filed as cell-based, HIV-1. The arrangement: The full-length Tat cDNA from molecular clone YU-2 (subtype-B) is made from cellular RNA of 293 cells; expressed in transfected cells; host or cells: HEK293 (293) cells, transient transfection; pcDNA3.1 CMV-Tat (YU-2) or EF-1α-Tat (YU-2) vector. The procedure: (§2) Vector DNA Transfection: All the proof-of-the-concept assays embedded in this document are performed using the transient transfection method formats. Most of the experiments are done using host cells such as HEK293 cells and preferably the standard calcium transfection protocol. Further, few experiments are also performed using HeLa cells. A commercial lipid formulation is used for this and is used following the suppliers instructions.
siRNA Transfection: Anti-Tat siRNA molecules are introduced into cells using a commercial lipid-nanoparticle formulation as per the instructions from the supplier.
Adding Tat Inhibitors to the Cell and Screening to Identify Anti-viral/Tat Molecules: The assays are performed using the following format although several variations are introduced depending on the need. • a) Cell Plating: Cells are plated in 96-well culture plates the previous evening and on the morning of the experiment, they are at 30-40% occupancy and in the logarithmic growth phase. • b) DNA Vector Transfection: A combination of 4 vectors is used in most of the assays. The total DNA concentration ranged from 1 to 2 μg per a 24-well plate or 100-200 ng per 96-well plate depending on the context. • 1. Anti-RFP siRNA vector (pPRIME-LTR-GFP: anti-RFP miRNA (p604.344):100-600 ng • 2. Anti-RFP siRNA vector (pPRIME-LTR-GFP: anti-RFP miRNA (p604.620): 100-600 ng • 3. CMV-Tat (YU-2) vector:50-200 ng • 4. CMV-RFP vector (pCMV-RFP-IRES-Puro) (FIGS. 21):50-200 ng
Cells are monitored for GFP or RFP expression after 24 h after subjected to an anti-Tat compound.
Anti-Tat Compound Treatment: A small molecule inhibitor (at concentrations mentioned in individual experiments above) or anti-Tat siRNA (20-100 ng per well) are used. The anti-Tat agent is used immediately after plasmid DNA transfection or after 12-24 h. Cells are removed from the wells by trypsinization and made into single cell suspension in phosphate buffered saline. The mean fluorescence intensity of the cells was determined using flow cytometry. Alternatively, cells were removed from the well using trypsinization and suspended in PBS. The intensity of the fluorescence was quantitatively determined using a standard fluorimeter. Fluorescent protein gene expression is measured at 24, 36, 48 and 72 h from vector transfection, at one time point or multiple time points.
as §1
Background: In a reporter assay the amount or activity of a reporter protein is the signal.

Data set [2] has as its target T1, Tat. The data set can be described thus: Tat-inducible GFP / anti-RFP shRNA reporter assay, transient transfection in HeLa cells. It is filed as cell-based, HIV-1. Details: The full-length Tat cDNA from molecular clone YU-2 (subtype-B) is made from cellular RNA of 293 cells; expressed in transfected cells; pcDNA3.1 CMV-Tat (YU-2) or EF-1α-Tat (YU-2) vector. The note with it: 25 μM, 24 h. As for the experimental part:
HeLa cells are transiently transfected with pPRIME-LTR-GFP: anti-RFP miRNA (p604.344 and p604.620), CMV-RFP and EF-1α-Tat (YU-2) vectors. Cells are treated with 25 μM DRB. GFP and RFP expression is recorded 24 h after vector transfection.
as §2
The assay also identifies SMI which inhibit cellular factors needed for Tat. 5,6-Dichlorobenzimidazole Riboside (DRB) is a potent inhibitor of CDK9 which is a cellular factor necessary for Tat function. […] Thus the assay of the present disclosure also identify such SMI that have an indirect effect on Tat function.

For data set [3], the target named is T2, Tat (Human immunodeficiency virus type 1 group M subtype B, UniProt P04608).
T2 construct: host or cells: HeLa cells
T2 sequence (P04608 whole entry): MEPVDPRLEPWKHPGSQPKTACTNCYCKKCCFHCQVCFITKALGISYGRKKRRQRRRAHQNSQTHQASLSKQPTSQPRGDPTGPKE
Particulars: HeLa cells, increasing concentration; cited from earlier work.

Where [4] appears, read: HEK 293 cells, with Tat, increasing/different concentrations of the inhibitor.

“Also recorded” adds a separate entry of the source.

T1 sequence (P35965 whole entry): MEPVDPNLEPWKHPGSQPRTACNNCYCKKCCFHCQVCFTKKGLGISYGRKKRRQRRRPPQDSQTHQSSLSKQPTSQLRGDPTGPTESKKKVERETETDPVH

For `CC[C@H](CO)Nc1nc(NCc2ccccc2)c2ncn(C(C)C)c2n1` [Roscovitine], in the data set with HEK 293 cells (293 cells, 3 μM), the Cytotoxicity result is “cytotoxicity”. In addition, on Tat [1] (293 cells, 3 μM, 48 h), the GFP expression result is “reduced expression of GFP” and the RFP expression result was “not in enhanced expression of RFP”.

`CN1CC[C@H](c2c(O)cc(O)c3c(=O)cc(-c4ccccc4Cl)oc23)[C@H](O)C1` [Flavipiridol]: in the data set on HEK 293 cells, the “Cytotoxicity / cell death (light microscopy)” value (“Cytotoxicity / cell death” below) is “progressive increase in cytotoxicity”.

For `OC[C@H]1O[C@@H](n2cnc3cc(Cl)c(Cl)cc32)[C@H](O)[C@@H]1O` [DRB, 5,6-dichloro-1-beta-D-ribofuranosylbenzimidazole], the GFP expression result on Tat [2] is given as “relative down regulation of GFP”; on Tat [1] (setting [4]) it was “GFP expression also is reduced; also recorded: progressive reduction in GFP expression; also recorded: progressive down-regulation of GFP expression”. Besides, the RFP expression result on Tat [2] is on record as “relieves Tat-mediated RFP suppression; also recorded: relieves RFP gene expression”; on Tat [1] (setting [4]), “should have been up-regulated, which is not the case here; also recorded: no concomitant up-regulation of RFP expression”. In addition, in the data set on HEK 293 cells, the “Cytotoxicity / cell death” value is listed as “enhanced cell death with increasing concentrations; also recorded: increasing levels of cytotoxicity; also recorded: significant levels of cell death”.

For `COc1ccc(C(=O)C2=C3OC(C)(C)[C@@H](CC=C(C)C)C[C@@]34C[C@@H](CC=C(C)C)C(C)(C)[C@@](CC=C(C)C)(C2=O)C4=O)cc1O` [LTK14], the “Cytotoxicity / cell death” value with HEK 293 cells is listed as “progressively increased cell death”. At Tat [1] (setting [4]), the GFP expression entry was “down regulation of GFP” and the RFP expression entry was “not enhanced RFP expression”.

With `COc1cccc2c1C(=O)c1c(O)c3c(c(O)c1C2=O)C[C@@](O)(C(C)=O)C[C@@H]3O[C@H]1C[C@H](NCc2ccc(CN[C@H]3C[C@H](O[C@H]4C[C@](O)(C(C)=O)Cc5c(O)c6c(c(O)c54)C(=O)c4c(OC)cccc4C6=O)O[C@@H](C)[C@H]3O)cc2)[C@H](O)[C@H](C)O1` [WP631], the “Cytotoxicity (cell density under light microscopy)” value in the data set with HEK 293 cells (293 cells, WP631 treatment (100 nM)) is given as “Low level cytotoxicity”. In addition, in the data set on HEK 293 cells, the “Cytotoxicity / cell death” value was “toxic to the cell at higher concentrations; also recorded: causes apoptosis at higher concentrations”. For the same compound, the RFP expression entry is listed as “partially relieves Tat-mediated inhibition of RFP” at Tat [1] (293 cells, 100 nM) and “small relief in RFP suppression is evident, this is not significant; also recorded: insignificant levels of up-regulation of RFP; also recorded: partially relieves RFP gene expression” on Tat [1] (setting [4]). Besides, at Tat [1] (setting [4]), the GFP expression result was “marginally reduced GFP expression; also recorded: marginal down regulation of GFP”.

As to `O=C1CN=C(c2ccc[nH]2)c2cc(Cl)ccc2N1` [R05-3335], the GFP expression result at Tat [3] is reported as “GFP expression is down-regulated”.
